Measured values reported in patent US7030125B2, “Isothiazole and isoxazole compounds as transforming growth factor (TGF) inhibitors” (Pfizer, Inc., priority 2002, dated 2006).

Molecular target: T1, ALK-5 (TβRI) (Homo sapiens, UniProt P36897)
T1 construct: using either the kinase domain of ALK5 with Smad3 as substrate; GST
T1 sequence (P36897 205-495 limits assumed): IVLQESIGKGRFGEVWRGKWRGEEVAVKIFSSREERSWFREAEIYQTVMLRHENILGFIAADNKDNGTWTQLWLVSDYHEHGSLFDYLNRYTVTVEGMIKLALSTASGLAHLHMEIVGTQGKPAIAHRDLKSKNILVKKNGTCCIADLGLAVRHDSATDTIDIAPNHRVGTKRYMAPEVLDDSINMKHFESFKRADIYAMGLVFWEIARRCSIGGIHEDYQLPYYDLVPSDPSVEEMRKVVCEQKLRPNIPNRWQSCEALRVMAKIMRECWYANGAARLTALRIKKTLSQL
Test: ALK-5 (TβRI) Kinase Assay
Assay type: biochemical
Settings: GST-ALK5 with GST-Smad3 as substrate; read-out: TβRIIC50 value
Experimental: The kinase assays were performed with 65 nM GST-ALK5 and 84 nM GST-Smad3 in 50 mM HEPES, 5 mM MgCl2, 1 mM CaCl2, 1 mM dithiothreitol, and 3_M ATP. Reactions were incubated with 0.5_Ci of [33 P]_ATP for 3 h at 30° C. Phosphorylated protein was captured on P-81 paper (Whatman, Maidstone, England), washed with 0.5% phosphoric acid, and counted by liquid scintillation. Alternatively, Smad3 or Smad1 protein was also coated onto FlashPlate Sterile Basic Microplates (PerkinElmer Life Sciences, Boston, Mass.). Kinase assays were then performed in Flash-Plates with same assay conditions using either the kinase domain of ALK5 with Smad3 as substrate or the kinase domain of ALK6 (BMP receptor) with Smad1 as substrate. Plates were washed three times with phosphate buffer and counted by TopCount (Packard Bio-science, Meriden, Conn.). (Laping, N.J. et al. Molecular Pharmacology 62:58–64 (2002)).

IC50: ~118 nM
SMILES: COc1ccc2nccc(-c3conc3-c3cccc(C)n3)c2c1 [Example 5, 6-Methoxy-4-[3-(6-methyl-pyridin-2-yl)-isoxazol-4-yl]-quinoline]
